Measurements from patent publication US11498899B2, “Nitrone herbicides” (FMC Corporation, priority 2016, dated 2022).

What was measured:
[1] = tested on: ragweed (common ragweed, Ambrosia elatior); experiment: Test A preemergence, visual injury rating 0-100; format: in vivo; conditions: for Ragweed plant response rating (0 to 100 scale): 125 g ai/ha; for Ragweed plant response rating: 500 g ai/ha, 0 to 100 scale
Text: (§1) Seeds of plant species selected from barnyardgrass (Echinochloa crus-galli), kochia (Kochia scoparia), ragweed (common ragweed, Ambrosia elatior), ryegrass, Italian (Italian ryegrass, Lolium multiflorum), foxtail, giant (giant foxtail, Setaria faberii), foxtail, green (green foxtail, Setaria viridis), and pigweed (Amaranthus retroflexus) were planted into a blend of loam soil and sand and treated preemergence with a directed soil spray using test chemicals formulated in a non-phytotoxic solvent mixture which included a surfactant.
(§2) At the same time, plants selected from these weed species and also wheat (Triticum aestivum), corn (Zea mays), blackgrass (Alopecurus myosuroides), and galium (catchweed bedstraw, Galium aparine) were planted in pots containing the same blend of loam soil and sand and treated with postemergence applications of test chemicals formulated in the same manner. Plants ranged in height from 2 to 10 cm and were in the one- to two-leaf stage for the postemergence treatment. Treated plants and untreated controls were maintained in a greenhouse for approximately 10 days, after which time all treated plants were compared to untreated controls and visually evaluated for injury. […] A dash (-) response means no test result.

kochia (Kochia scoparia) [2] = experiment: Test A preemergence, visual injury rating 0-100; format: in vivo; conditions: for Kochia plant response rating (0 to 100 scale): 125 g ai/ha; for Kochia plant response rating: 500 g ai/ha, 0 to 100 scale
Text: as §1, §2

[3] = tested on: foxtail, giant (giant foxtail, Setaria faberii); experiment: Test A preemergence, visual injury rating 0-100; format: in vivo; conditions: for Foxtail, Giant plant response rating (0 to 100 scale): 125 g ai/ha; for Foxtail, Giant plant response rating: 500 g ai/ha, 0 to 100 scale
Text: as §1, §2

[4] = tested on: ryegrass, Italian (Italian ryegrass, Lolium multiflorum); experiment: Test A preemergence, visual injury rating 0-100; format: in vivo; conditions: for Ryegrass, Italian plant response rating (0 to 100 scale): 125 g ai/ha; for Ryegrass, Italian plant response rating: 500 g ai/ha, 0 to 100 scale
Text: as §1, §2

[5] = tested on: pigweed (Amaranthus retroflexus); experiment: Test A preemergence, visual injury rating 0-100; format: in vivo; conditions: for Pigweed plant response rating (0 to 100 scale): 125 g ai/ha; for Pigweed plant response rating: 500 g ai/ha, 0 to 100 scale
Text: as §1, §2

rice (Oryza sativa) = experiment: Test B flooded paddy test, visual rating 0-100 (0 no effect, 100 complete control); conditions: Flood, 250 g ai/ha, applied to paddy water, rated after 13 to 15 days
[6] = tested on: barnyardgrass (Echinochloa crus-galli); experiment: Test B flooded paddy test, visual rating 0-100; conditions: Flood, 250 g ai/ha, applied to paddy water, rated after 13 to 15 days
[7] = tested on: barnyardgrass (Echinochloa crus-galli); experiment: Test A preemergence, visual injury rating 0-100 (0 no effect, 100 complete control); format: in vivo; conditions: for Barnyardgrass plant response rating (0 to 100 scale): 125 g ai/ha; for Barnyardgrass plant response rating: 500 g ai/ha, 0 to 100 scale
Text: as §1, §2

[8] = tested on: ducksalad (Heteranthera limosa); experiment: Test B flooded paddy test, visual rating 0-100; conditions: Flood, 250 g ai/ha, applied to paddy water, rated after 13 to 15 days
[9] = tested on: barnyardgrass (Echinochloa crus-galli); experiment: Test A postemergence, visual injury rating 0-100; format: in vivo; conditions: 0 to 100 scale
Text: as §1, §2

[10] = tested on: ragweed (common ragweed, Ambrosia elatior); experiment: Test A postemergence, visual injury rating 0-100; format: in vivo; conditions: 0 to 100 scale
Text: as §1, §2

[11] = tested on: wheat (Triticum aestivum); experiment: Test A postemergence, visual injury rating 0-100; format: in vivo; conditions: 0 to 100 scale
Text: as §1, §2

[12] = tested on: blackgrass (Alopecurus myosuroides); experiment: Test A postemergence, visual injury rating 0-100; format: in vivo; conditions: 0 to 100 scale
Text: as §1, §2

[13] = tested on: galium (catchweed bedstraw, Galium aparine); experiment: Test A postemergence, visual injury rating 0-100; format: in vivo; conditions: 0 to 100 scale
Text: as §1, §2

kochia (Kochia scoparia) [14] = experiment: Test A postemergence, visual injury rating 0-100; format: in vivo; conditions: 0 to 100 scale
Text: as §1, §2

[15] = tested on: foxtail, giant (giant foxtail, Setaria faberii); experiment: Test A postemergence, visual injury rating 0-100; format: in vivo; conditions: 0 to 100 scale
Text: as §1, §2

[16] = tested on: ryegrass, Italian (Italian ryegrass, Lolium multiflorum); experiment: Test A postemergence, visual injury rating 0-100; format: in vivo; conditions: 0 to 100 scale
Text: as §1, §2

[17] = tested on: pigweed (Amaranthus retroflexus); experiment: Test A postemergence, visual injury rating 0-100; format: in vivo; conditions: 0 to 100 scale
Text: as §1, §2

corn (Zea mays) = experiment: Test A postemergence, visual injury rating 0-100; format: in vivo; conditions: 0 to 100 scale
Text: as §1, §2

SMILES | Ragweed plant response rating (0 to 100 scale) [1] | Ragweed plant response rating [1] | Kochia plant response rating (0 to 100 scale) (kochia (Kochia scoparia) [2]) | Kochia plant response rating (kochia (Kochia scoparia) [2]) | Foxtail, Giant plant response rating (0 to 100 scale) [3] | Foxtail, Giant plant response rating [3] | Ryegrass, Italian plant response rating (0 to 100 scale) [4] | Ryegrass, Italian plant response rating [4] | Pigweed plant response rating (0 to 100 scale) [5] | Pigweed plant response rating [5] | Rice plant response rating (0 to 100 scale) (rice (Oryza sativa)) | Barnyardgrass plant response rating (0 to 100 scale) [6] | Barnyardgrass plant response rating (0 to 100 scale) [7] | Barnyardgrass plant response rating [7] | Ducksalad plant response rating (0 to 100 scale) [8] | Barnyardgrass plant response rating ([9]; 125 g ai/ha) | Barnyardgrass plant response rating ([9]; 500 g ai/ha) | Ragweed plant response rating ([10]; 125 g ai/ha) | Ragweed plant response rating ([10]; 500 g ai/ha) | Wheat plant response rating ([11]; 125 g ai/ha) | also measured
CC1=[N+]([O-])C(C(=O)Nc2cccc(F)c2F)C(c2ccc(F)c(F)c2)C1 (racemic) [Compound 10] | 0 | 90 | 0 | 60 | 80 | 90 | 0 | 60 | 50 | 60 | 0 | 85 | 90 | 90 | 100 | 40 | 90 | 0 | 20 | 0 | Wheat plant response rating ([11]; 500 g ai/ha): 70; Blackgrass plant response rating ([12]; 125 g ai/ha): 20; Blackgrass plant response rating ([12]; 500 g ai/ha): 30; Galium plant response rating ([13]; 125 g ai/ha): 50; Galium plant response rating ([13]; 500 g ai/ha): 60; Kochia plant response rating (kochia (Kochia scoparia) [14]; 125 g ai/ha): 0; Kochia plant response rating (kochia (Kochia scoparia) [14]; 500 g ai/ha): 20; Foxtail, Giant plant response rating ([15]; 125 g ai/ha): 60; Foxtail, Giant plant response rating ([15]; 500 g ai/ha): 90; Ryegrass, Italian plant response rating ([16]; 125 g ai/ha): 0; Ryegrass, Italian plant response rating ([16]; 500 g ai/ha): 0; Pigweed plant response rating ([17]; 125 g ai/ha): 0; Pigweed plant response rating ([17]; 500 g ai/ha): 20; Corn plant response rating (corn (Zea mays); 125 g ai/ha): 0; Corn plant response rating (corn (Zea mays); 500 g ai/ha): 50
CC1=[N+]([O-])C(C(=O)Nc2cccc(F)c2F)C(c2ccccc2C)C1 (racemic) [Compound 11] | 40 | 30 | 0 | 0 | 90 | 100 | 0 | 0 | 0 | 0 | 15 | 90 | 80 | 100 | 100 | 40 | 90 | 0 | 0 | 0 | Wheat plant response rating ([11]; 500 g ai/ha): 20; Blackgrass plant response rating ([12]; 125 g ai/ha): 0; Blackgrass plant response rating ([12]; 500 g ai/ha): 0; Galium plant response rating ([13]; 125 g ai/ha): 0; Galium plant response rating ([13]; 500 g ai/ha): 20; Kochia plant response rating (kochia (Kochia scoparia) [14]; 125 g ai/ha): 0; Kochia plant response rating (kochia (Kochia scoparia) [14]; 500 g ai/ha): 0; Foxtail, Giant plant response rating ([15]; 125 g ai/ha): 30; Foxtail, Giant plant response rating ([15]; 500 g ai/ha): 90; Ryegrass, Italian plant response rating ([16]; 125 g ai/ha): 0; Ryegrass, Italian plant response rating ([16]; 500 g ai/ha): 0; Pigweed plant response rating ([17]; 125 g ai/ha): 0; Pigweed plant response rating ([17]; 500 g ai/ha): 0; Corn plant response rating (corn (Zea mays); 125 g ai/ha): 0; Corn plant response rating (corn (Zea mays); 500 g ai/ha): 0
CC1=[N+]([O-])C(C(=O)Nc2cccc(F)c2F)C(c2cccc(C(C)C)c2)C1 (racemic) [Compound 12] | 0 | 90 | 0 | 50 | 100 | 100 | 0 | 90 | 0 | 30 | 0 | 70 | 100 | 100 | 80 | 10 | 90 | 0 | 40 | 20 | Wheat plant response rating ([11]; 500 g ai/ha): 70; Blackgrass plant response rating ([12]; 125 g ai/ha): 0; Blackgrass plant response rating ([12]; 500 g ai/ha): 50; Galium plant response rating ([13]; 125 g ai/ha): 50; Galium plant response rating ([13]; 500 g ai/ha): 70; Kochia plant response rating (kochia (Kochia scoparia) [14]; 125 g ai/ha): 0; Kochia plant response rating (kochia (Kochia scoparia) [14]; 500 g ai/ha): 30; Foxtail, Giant plant response rating ([15]; 125 g ai/ha): 90; Foxtail, Giant plant response rating ([15]; 500 g ai/ha): 90; Ryegrass, Italian plant response rating ([16]; 125 g ai/ha): 0; Ryegrass, Italian plant response rating ([16]; 500 g ai/ha): 50; Pigweed plant response rating ([17]; 125 g ai/ha): 0; Pigweed plant response rating ([17]; 500 g ai/ha): 20; Corn plant response rating (corn (Zea mays); 125 g ai/ha): 50; Corn plant response rating (corn (Zea mays); 500 g ai/ha): 90
CC1=[N+]([O-])C(C(=O)Nc2cccc(F)c2F)C(c2c(F)cccc2Cl)C1 (racemic) [Compound 14] | 0 | 0 | 0 | 0 | 0 | 0 | 0 | 0 | 0 | 0 | 0 | 40 | 0 | 0 | 20 | 0 | 0 | 0 | 0 | 0 | Wheat plant response rating ([11]; 500 g ai/ha): 0; Blackgrass plant response rating ([12]; 125 g ai/ha): 0; Blackgrass plant response rating ([12]; 500 g ai/ha): 0; Galium plant response rating ([13]; 125 g ai/ha): 0; Galium plant response rating ([13]; 500 g ai/ha): 0; Kochia plant response rating (kochia (Kochia scoparia) [14]; 125 g ai/ha): 0; Kochia plant response rating (kochia (Kochia scoparia) [14]; 500 g ai/ha): 0; Foxtail, Giant plant response rating ([15]; 125 g ai/ha): 0; Foxtail, Giant plant response rating ([15]; 500 g ai/ha): 0; Ryegrass, Italian plant response rating ([16]; 125 g ai/ha): 0; Ryegrass, Italian plant response rating ([16]; 500 g ai/ha): 0; Pigweed plant response rating ([17]; 125 g ai/ha): 0; Pigweed plant response rating ([17]; 500 g ai/ha): 0; Corn plant response rating (corn (Zea mays); 125 g ai/ha): 0; Corn plant response rating (corn (Zea mays); 500 g ai/ha): 0
CC1=[N+]([O-])C(C(=O)Nc2cccc(F)c2F)C(c2cccc(C)c2)C1 (racemic) [Compound 15] | 0 | 90 | 0 | 30 | 100 | 100 | 0 | 50 | 0 | 0 | 15 | 85 | 100 | 100 | 95 | 90 | 90 | 0 | 50 | 40 | Wheat plant response rating ([11]; 500 g ai/ha): 50; Blackgrass plant response rating ([12]; 125 g ai/ha): 0; Blackgrass plant response rating ([12]; 500 g ai/ha): 30; Galium plant response rating ([13]; 125 g ai/ha): 0; Galium plant response rating ([13]; 500 g ai/ha): 30; Kochia plant response rating (kochia (Kochia scoparia) [14]; 125 g ai/ha): 0; Kochia plant response rating (kochia (Kochia scoparia) [14]; 500 g ai/ha): 30; Foxtail, Giant plant response rating ([15]; 125 g ai/ha): 80; Foxtail, Giant plant response rating ([15]; 500 g ai/ha): 90; Ryegrass, Italian plant response rating ([16]; 125 g ai/ha): 30; Ryegrass, Italian plant response rating ([16]; 500 g ai/ha): 50; Pigweed plant response rating ([17]; 125 g ai/ha): 0; Pigweed plant response rating ([17]; 500 g ai/ha): 40; Corn plant response rating (corn (Zea mays); 125 g ai/ha): 60; Corn plant response rating (corn (Zea mays); 500 g ai/ha): 90
